Laboratory results from US20240300999A1, “PEPTIDES FOR REGULATING GLUCOSE” (priority 2021, published 2024).

Key:
L6 myotubes [1] = test: Glucose uptake (2-deoxy-D-[3H]glucose) screening assay in cultured L6 myotubes; format: cell-based, rat; settings: for Glucose Uptake (fold activity to control), Insulin (−) / Glucose Uptake (fold activity to control), Insulin (+): synthetic peptides 1 ng/mL (each), mean ± SEM; for Concentration at which inhibition of glucose uptake was exhibited / Concentration at which stimulation of glucose uptake was exhibited: L6 myotubes; for Bioactivity: Table 4, identified peptides
Method: Screening assays were performed as follows. L6 rat myoblasts (courtesy of Dr. Amira Klip, Hospital for Sick Children, Toronto, Canada) were grown and maintained in monolayer culture in alpha-MEM containing 2% (v/v) fetal bovine serum in an atmosphere of 5% CO2 at 37° C. L6 myoblasts were plated in 12-well or 24-well plates at 20,000 cells/mL, replacing the media every two days until complete differentiation into myotubes (7 days post-plating).
Once completely differentiated, myotubes were serum deprived (alpha-MEM with 0% FBS) for 3 h and treated or not with SPF (1 ng/ml or 1 μg/mL) for 2 h without (insulin-independent) or with 100 nM insulin (insulin-dependent) during the last 45 min. Cells were rinsed once with glucose-free HEPES-buffered saline solution pH 7.4 (140 mM NaCl, 20 mM HEPES/Na, 5 mM KCl, 2.5 mM MgSO4 and 1 mM CaCl2)), and were subsequently incubated for 8 min with 10 µM 2-deoxy-D-glucose containing 0.3 μCi/mL 2-deoxy-D-[3H]glucose in the same buffer. After incubation in transport medium, cells were rinsed three times with ice-cold saline solution (0.9% NaCl) and stored at −20° C. Cells were disrupted by adding 1 mL of 50 mM NaOH to plates with agitation for 15 min. Cell-incorporated radioactivity was measured using a Perkin Elmer Tricarb liquid scintillation counter. Protein concentrations were determined by the micro bicinchoninic acid method (BCA) using a bovine serum albumin (BSA) standard curve (ThermoScientific, Waltham, Mass, USA), and the results expressed in pM/min/mg protein, calculated using the following equation: […]
where DPM (sample) is the number of disintegrations per minute (DPM) measured for the tested sample, C is the concentration of protein (mg), DPM (2DG) is the number of DPM measure for the solution of radioactive 2-deoxy-D-[3H] glucose for 1 pmol and equal to 72.2025 dpm/pmol, and t is the incubation time with 2-deoxy-D-[3H] glucose, and reported in terms of relative activity to the control sample in the absence of insulin. Statistical analysis was performed in Microsoft Excel using a two-tailed Student's t-test assuming equal variance.

L6 myotubes [2] = test: as above; format: cell-based, rat; settings: for Glucose Uptake (fold activity to control), Insulin (−) / Glucose Uptake (fold activity to control), Insulin (+): synthetic peptides 1 pg/mL (each), mean ± SEM
[3] = 1 ng/mL, insulin state not distinguished (presence or absence)
[4] = 1 pg/mL, insulin state not distinguished

Row | Substance | Effect on glucose uptake (in words) (L6 myotubes [1]; [3]) | Glucose Uptake (fold activity to control), Insulin (−) (L6 myotubes [1]; absence of insulin) | Glucose Uptake (fold activity to control), Insulin (+) (L6 myotubes [1]; presence of insulin) | Glucose Uptake (fold activity to control), Insulin (−) (L6 myotubes [2]; absence of insulin) | Glucose Uptake (fold activity to control), Insulin (+) (L6 myotubes [2]; presence of insulin) | Effect on glucose uptake (in words) (L6 myotubes [1]; 1 ng/mL (each peptide), absence of insulin) | Effect on glucose uptake (in words) (L6 myotubes [1]; 1 ng/mL, presence of insulin) | Concentration at which inhibition of glucose uptake was exhibited (L6 myotubes [1]) | Concentration at which stimulation of glucose uptake was exhibited (L6 myotubes [1]) | Bioactivity (L6 myotubes [1]) | Effect on glucose uptake (in words) (L6 myotubes [2]; 1 pg/mL (each peptide), absence of insulin) | Effect on glucose uptake (in words) (L6 myotubes [2]; [4]) | Effect on glucose uptake (in words) (L6 myotubes [2]; 1 pg/mL, presence of insulin)
1 | Ile-Ile-Tyr | did not significantly affect | 1.06 ± 0.03 fold activity to control | 1.88 ± 0.11 fold activity to control | 0.97 ± 0.04 fold activity to control | 1.61 ± 0.07 fold activity to control |  |  |  |  |  |  |  | 
2 | Ile-Ile-Ile | No significant effect | 1.00 ± 0.04 fold activity to control | 2.02 ± 0.27 fold activity to control |  |  |  |  |  |  |  |  |  | 
3 | Ile-Ala-Ile | No significant effect | 1.04 ± 0.04 fold activity to control | 1.80 ± 0.09 fold activity to control |  |  |  |  |  |  |  |  |  | 
4 | Ile-Ala-Tyr (IAY) [chemically synthesized tripeptide, Ile-X-Tyr motif] | stimulating effect | 1.13 ± 0.05 fold activity to control | 1.97 ± 0.08 fold activity to control | 0.86 ± 0.04 fold activity to control | 1.55 ± 0.04 fold activity to control | stimulated glucose uptake | stimulated glucose uptake | 2.7 pM | 2.7 nM | Modulates glucose uptake | inhibited glucose uptake | inhibiting effect | inhibited glucose uptake
5 | Ile-Gly-Tyr (IGY) [chemically synthesized tripeptide, Ile-X-Tyr motif] | stimulating effect | 1.05 ± 0.06 fold activity to control | 2.02 ± 0.05 fold activity to control | 0.98 ± 0.06 fold activity to control | 1.49 ± 0.10 fold activity to control |  | stimulated glucose uptake | 2.8 pM | 2.8 nM | Modulates glucose uptake |  | inhibiting effect | inhibited glucose uptake
6 | Ile-Gly-Ile | No significant effect | 1.04 ± 0.04 fold activity to control | 1.75 ± 0.17 fold activity to control |  |  |  |  |  |  |  |  |  | 
